The values that follow come from patent US20250170140A1, “PHARMACEUTICAL COMPOSITION FOR PREVENTING OR TREATING CANCER COMPRISING CARNITINE ACYLCARNITINE CARRIER INHIBITOR AND PEROXISOMAL BETA OXIDATION INHIBITOR” (priority 2021, published 2025).

This experiment has as its system MIA PaCa-2. The experiment is described as follows: SRB assay, cancer cell growth, pancreatic cancer cell line MIA PaCa-2. It counts as cell-based. To be noted: MIA PaCa-2. The procedure: As a comparison, omeprazole (KN510) and trimetazidine (KN713), a 3-ketoacyl CoA thiolase inhibitor, were co-treated. […] After cell inoculation, 96-well cell culture plates were incubated for 24 hours before the addition of experimental drugs. […] The cells were then incubated in a CO2 incubator for 48 hours, after which the assay was terminated by the addition of cold TCA. Cells were fixed in situ by gently adding 50 μl of cold 50% (w/v) TCA (final concentration: 10% TCA) and incubated at 4° C. for 60 min. The supernatant was discarded, and the plate was washed five times with distilled water and air dried. Sulforhodamine B (SRB) solution (100 μl) of 0.4% (w/v) in 1% acetic acid was added to each well, and the plate was left at room temperature for 10 min. After staining, unbound dye was removed by washing five times with 1% acetic acid, and the plate was air-dried. The bound dye was then solubilized with 10 mM trizma base, and the absorbance was recorded at 515 nm using an automated plate reader. […] The predicted synergistic activity of a combination of the present invention can be calculated using the Colby Equation in Equation 1 (S.R. Colby, Weeds, 1967, pp. 15, 20-22): α and β are the measured anti-cancer activity of each compound alone, and E is the predicted anti-cancer activity of a mixture of α and β as a prediction. In the present invention, the actual measure of anti-cancer activity of the combination treatment was the inhibition rate of cancer cell growth (%), and the predicted value (E) of the combination treatment was measured by substituting it into the above Colby Equation.

For `COc1ccc(CN2CCNCC2)c(OC)c1OC` [KN713, trimetazidine], the GI50 (Homo sapiens, 48 hours, read-out: GI50 (Half maximal growth inhibition concentration)) came to 1810 µM. Further, the “Cancer cell growth rate Average (%)” value (Conc. 10^−2M, Table 1) is −29.68%; the “Cancer cell growth rate Average (%)” value (Conc. 10^−3M, Table 1) amounted to 95.03%; the “Cancer cell growth rate Average (%)” value (Conc. 10^−4M, Table 1) is given as 95.50%; the “Cancer cell growth rate Average (%)” value (Conc. 10^−5M, Table 1) is recorded as 94.52%; the “Cancer cell growth rate Average (%)” value (Conc. 10^−6M, Table 1) amounted to 97.75%; the “Cancer cell growth rate Average (%)” value (Conc. 10^−7M, Table 1) stood at 97.85%. For the same compound, the “Cancer cell growth rate Average (%)” value (comparative example, Table 3, KN713 2.5 mM) came to 88.90%.
